Marks after values point to notes of the source that are not given here.

Assay [1] concerns rat primary cortical neurones. The assay is described as follows: Reversal of glutamate-induced neurodegeneration (LDH), treatment after glutamate exposure. Format: cell-based. The settings on record: LDH after 24 h, control = 100. The procedure: (§1) Neuronal cell survival was evaluated by measuring lactate dehydrogenase (LDH) activity released in the media 24 h after test compound treatment or glutamate+test compound exposure, using the CytoTox 96 non-radioactive kit and quantitated by measuring wavelength absorbance at 450 nm.
As above mentioned, exposure of rat primary cortical cultures to glutamate (100 μM; 10 min) caused an increase in lactate dehydrogenase (LDH) activity measured after 24 h, indicating a significant neurodegeneration.

Assay [2] relates to muscarinic acetylcholine receptor. The assay is described as follows: Brain M receptor density (3H-QNB) in amyloid β + ibotenic acid rat model. To be noted: 18 mg/kg/day gastric tube, two months; model 713 ± 48, control 859 ± 101. The class given is in vivo. The procedure: (§2) An in vivo model of Alzheimer's disease was used to model neurodegeneration. In this model the neurotoxic agents (amyloid β and ibotenic acid) are injected into the brain of the rat. This leads to neuronal loss, receptor loss and cognitive impairment. […] In addition the co-injection of amyloid β with a small amount of ibotenic acid into the rat hippocampus synergistically produces neuronal loss with infiltration of glial cells not only adjacent but also far from the injected site (Morimoto et al., 1998: Neuroscience, 84, 479-487).
(§3) Our studies used the method of Morimoto (Morimoto et al., 1998: Neuroscience, 84, 479-487) with some modifications (unilateral instead of bilateral injection). Three months old, Sprague Dawley rats, were randomly divided into different groups. Injection of amyloid β1-40 and ibotenic acid (both from Sigma) was accomplished by means of a stereotaxic instrument (Stoelting Co.) and the coordinates were AP=−0.5 mm […], L=−2.8 mm […], H=−7.0 mm (ventral to dura). The dose for each rat was amyloid β1-40 (4 μg) and ibotenic acid (1 μg) in 1 μl of saline. The injection was completed in 20 min, and the needle was withdrawn 10 min later. Then the skin was sutured.
(§4) The 8 groups were: • Operated control injected with normal saline (control) • Model (control injected with amyloid β+ibotenic acid) • Model+Episarsasapogenin cathylate (18 mg/kg/day)* • Model+Sarsasapogenin cathylate (18 mg/kg/day)* • Model+Episarsasapogenin ethylsuccinate (18 mg/kg/day) (comparison) • Model+Episarsasapogenin (18 mg/kg/day)* • Model+Epismilagenin (18 mg/kg/day)* • Model+Diosgenin (i.e. negative control, 18 mg/kg/day)
(§5) Episarsasapogenin cathylate, sarsasapogenin cathylate, episarsasapogenin ethylsuccinate (comparison compound), episarsasapogenin, epismilagenin and diosgenin (all at a dosage of 18 mg/kg/day) were administered to animals as stable suspensions in CMC—Na (0.5%) once daily through a gastric tube. The control and the model group were given the same volume of CMC—Na (0.5%) once daily. The drugs and vehicles were given for a period of two months, starting 20 days before operation.
Muscarinic acetylcholine receptor density was assessed. The brain samples were homogenised, centrifuged, and the pellet of centrifugation at 27000×g was re-homogenised and used for measurement. The concentration of ^3H-QNB was chosen at the saturation range. After incubation and separation, the bound portion was measured by liquid scintillation counter.

Assay [3] has as its system Sprague Dawley rats injected with amyloid β1-40 and ibotenic acid. Briefly: Step-through test in amyloid β + ibotenic acid rat model. Format: in vivo. The settings on record: 18 mg/kg/day gastric tube, two months; errors in 5 min; model 4.00 ± 2.40, control 0.60 ± 0.70. The procedure: as §2, §3, §4, §5
Step-Through Test: learning and memory. The effect of test compounds on learning and memory was assessed using the step-through test. A 60×15×15 cm box, divided into 2 equally sized rooms, one dark room with copper rod base, which was electrically charged (40 V ac) when in use, while the other was a light room but not electrically charged. Between the two rooms there is an opening (hole) for the rat to go through. The experiment is carried out for each rat on two consecutive days. The first day is for training; when the rat is adapted in the box for the first 3 min, then put in the light room, with its back toward the hole, and the copper rods of the dark room are charged for 5 min. The second day is for testing, when the number of crosses in 5 min are recorded. Improvements in memory are signalled by a reduction in the number of crosses.

In assay [4] the test system is rat primary cortical neurones. The assay is described as follows: Prevention of glutamate-induced neurodegeneration (LDH release), pre-treatment. Format: cell-based. To be noted: 30 nM, given 24 h before glutamate; LDH 24 h after glutamate; control = 100. The procedure:
The objective of this study was to examine the effects of sarsasapogenin, episarsasapogenin cathylate, episarsasapogenin, epismilagenin and smilagenin on the survival of rat primary cortical neurones exposed to glutamate, which is known to induce neuro degeneration.
Rat cortical neurones were cultured for 10 days; at day 10 the medium was changed to a serum-free defined medium. On day 12, 24 hours before glutamate exposure, cultures were washed and medium was replaced with fresh medium containing positive control (β-oestradiol), test compounds (sarsasapogenin, episarsasapogenin cathylate, episarsasapogenin, epismilagenin and smilagenin) or vehicle control (DMSO, 0.25%) or diosgenin as negative control.
On day 13, cultures were exposed to glutamate. After the incubation period, the cultures were washed with and placed in fresh medium, supplemented with relevant compounds or vehicle to evaluate their protective effects, 24 h after glutamate exposure.
as §1

Assay [5] deals with rat primary cortical neurones. The assay is described as follows: Neurite outgrowth in rat primary cortical neurones. To be noted: for Number of neurones displaying neurites, Mean ± s.e.m (%): control 47 ± 2; for Neurite length measured using optical micrometry, Mean ± s.e.m (%): control 100 ± 4. Format: cell-based. From the text:
Neurodegenerative disorders are characterised by a progressive loss of neurones and degradation of neuronal processes (neurites). Agents that induce neurite outgrowth may promote the formation of new connections between neurones and ameliorate the symptoms of neurodegenerative conditions (Katzman et al, Faseb J., 5, 278-286, 1991).

The subject of assay [6] is rat mesencephalic dopaminergic neurones. The assay is described as follows: Treatment of dopaminergic neurones after MPP+ exposure (survival, neurites). To be noted: treatment 0.03 nM; MPP+ 2 μM; MPP+ alone 76 ± 4. The class given is cell-based. An excerpt: Smilagenin and sarsasapogenin also reverse the neurodegeneration caused by exposure to the neurotoxin 1-methyl-4-phenylpyridinium (MPP^+) in rat mesencephalic dopaminergic neurones; a model of Parkinson's disease in vitro.
Glial cell line-derived neurotrophic factor (GDNF) and brain-derived neurotrophic factor (BDNF), molecules that are involved in neuronal growth, and 17β-oestradiol were used as positive controls. Treatment with smilagenin and sarsasapogenin produced a significant increase in the neuronal survival compared to neurones exposed to MPP^+ alone (Table 8).
Exposure to MPP^+ caused not only a significant decrease in dopaminergic number but also in the percentage of neurites.

Assay [7] relates to rat primary spinal motor neurones. Briefly: Glutamate-induced neurodegeneration in spinal motor neurones (LDH). Format: cell-based. To be noted: control 100 ± 1. How it is done: The objective of this study was to examine the effects of sarsasapogenin and smilagenin on the survival of rat primary spinal motor neurones exposed to glutamate, which is known to induce neurodegeneration in this model of motor neurodegeneration.
Rat motor neurones were prepared according to the method described by (Martinou et al, Neuron, 8, 737-744, 1992). On day 10, medium was removed and the cultures were exposed to glutamate (4 microM) for 10 min at 37° C. in defined medium. After the glutamate exposure, cultures were washed with Dulbecco modified Eagle medium at 37° C. then placed in fresh culture medium containing test compounds. After 48 h, the extent of spinal motor neurone degeneration was determined by measuring the amount of lactate dehydrogenase (LDH) released into the culture medium as above.

Where [8] appears, read: 3 nM after glutamate 100 μM 10 min.
Where [9] appears, read: 30 nM after glutamate 100 μM 10 min.

`C[C@@H]1CC[C@@]2(OC1)O[C@H]1C[C@H]3[C@@H]4CC[C@@H]5CC(=O)CC[C@]5(C)[C@H]4CC[C@]3(C)[C@H]1[C@@H]2C` [Smilagenone, smilagenone]: the “Cortical neurones previously exposed to glutamate, Mean ± s.e.m (%)” value (shortened to “Cortical neurones previously exposed … (%)”) in assay [1] (setting [8]) is given as 119 ± 7%; in assay [1] (setting [9]), 119 ± 4%.
For `CC1CCC2(OC1)OC1CC3C4CCC5CC(OC(=O)CN)CCC5(C)C4CCC3(C)C1C2C.Cl` (centres unmarked) [Smilagenin glycinate hydrochloride, smilagenin glycinate hydrochloride] the same measures were 117 ± 4% and 141 ± 6%.
Take `CC(C)CCC1OC2C[C@H]3[C@@H]4CC[C@@H]5C[C@@H](O)CC[C@]5(C)[C@H]4CC[C@]3(C)[C@H]2[C@@H]1C` (stereo partly drawn) [16,22-epoxycoprostan-3β-ol]: the “Cortical neurones previously exposed … (%)” value in assay [1] (setting [8]) is 114 ± 7%; in assay [1] (setting [9]), 134 ± 5%.
Consider `CCOC(=O)OC1CCC2(C)C(CCC3C2CCC2(C)C3CC3OC4(CCC(C)CO4)C(C)C32)C1` (centres unmarked) [sarsasapogenin cathylate], for which the M receptor density in assay [2] is 916 ± 158* fmol/mg/protein. The “Learning and memory Step through test Error No” value in assay [3] was 1.36 ± 1.03*.
For `CC(C)CCC[C@@H](C)[C@H]1CC[C@H]2[C@@H]3CC[C@@H]4C[C@@H](O)CC[C@]4(C)[C@H]3CC[C@]12C` [Coprosterol, coprosterol], the “Cortical neurones previously exposed … (%)” value in assay [1] (setting [8]) is recorded as 126 ± 5%; in assay [1] (setting [9]), 116 ± 4%.
Consider `C[C@H]1CC[C@@]2(OC1)O[C@H]1C[C@H]3[C@@H]4CC[C@@H]5C[C@H](O)CC[C@]5(C)[C@H]4CC[C@]3(C)[C@H]1[C@@H]2C` [episarsasapogenin], for which, in assay [4], the “Prevention of glutamate-induced neurodegeneration, Mean ± s.e.m (%)” value is reported as 88 ± 3%. Moreover, the M receptor density in assay [2] is 869 ± 104* fmol/mg/protein. Besides, in assay [3], the “Learning and memory Step through test Error No” value is reported as 1.50 ± 1.18*.
For `C[C@@H]1CC[C@@]2(OC1)O[C@H]1C[C@H]3[C@@H]4CC[C@@H]5C[C@H](O)CC[C@]5(C)[C@H]4CC[C@]3(C)[C@H]1[C@@H]2C` [epismilagenin] the same measures were 79 ± 2%, 877 ± 90* fmol/mg/protein and 1.73 ± 0.91*.
Take `C[C@@H]1CC[C@@]2(OC1)O[C@H]1C[C@H]3[C@@H]4CC=C5C[C@@H](O)CC[C@]5(C)[C@H]4CC[C@]3(C)[C@H]1[C@@H]2C` [diosgenin, reference compound]: the “Prevention of glutamate-induced neurodegeneration, Mean ± s.e.m (%)” value in assay [4] is listed as 72 ± 4%. In addition, the “Cortical neurones previously exposed … (%)” value in assay [1] (setting [9]) is reported as 49 ± 6%. Moreover, in assay [2], the M receptor density came to 770 ± 68 fmol/mg/protein. Moreover, the “Learning and memory Step through test Error No” value in assay [3] came to 3.75 ± 1.49.
As for `CCOC(=O)CCC(=O)OC1CCC2(C)C(CCC3C2CCC2(C)C3CC3OC4(CCC(C)CO4)C(C)C32)C1` (centres unmarked) [Episarsasapogenin ethylsuccinate, episarsasapogenin ethylsuccinate, reference compound], the M receptor density in assay [2] worked out at 774 ± 79 fmol/mg/protein. In addition, the “Learning and memory Step through test Error No” value in assay [3] is 3.73 ± 1.35.
Regarding `C[C@]12CC[C@@H]3c4ccc(O)cc4CC[C@H]3[C@@H]1CC[C@@H]2O` [17β-oestradiol, reference compound], the “Cortical neurones previously exposed … (%)” value in assay [1] (setting [8]) came out at 69 ± 2%; in assay [1] (setting [9]) it was 75 ± 5%. Further, the “Number of neurones displaying neurites, Mean ± s.e.m (%)” value in assay [5] (0.3 pM) came to 48 ± 2%; in assay [5] (3 pM) it was 60 ± 2%; in assay [5] (30 pM), 59 ± 2%. The “Neurite length measured using optical micrometry, Mean ± s.e.m (%)” value in assay [5] (0.3 pM) is listed as 154 ± 5%; in assay [5] (3 pM), 163 ± 4%. In addition, the “Dopaminergic neurones after MPP+ exposure (survival), Mean ± s.e.m (%)” value in assay [6] is 106 + 5%. Besides, the “Glutamate-induced neurodegeneration in spinal motor neurones, Mean ± s.e.m (%)” value in assay [7] (300 nM for 48 h after glutamate 4 microM 10 min) was 116 + 6%.

B1: BDNF: brain-derived neurotrophic factor, positive control (protein, UniProt P23560 19-247, looked up)
Neurotrophic factor BDNF …: APMKEANIRGQGGLAYPGVRTHGTLESVNGPKAGSRGLTSLADTFEHVIEELLDEDQKVRPNEENNKDADLYTSRVMLSSQVPLEPPLLFLLEEYKNYLDAANMSMRVRRHSDPARRGELSVCDSISEWVTAADKKTAVDMSGGTVTVLEKVPVSKGQLKQYFYETKCNPMGYTKEGCRGIDKRHWNSQCRTTQSYVRALTMDSKKRIGWRFIRIDTSCVCTLTIKRGR
With B1, the “Glutamate-induced neurodegeneration in spinal motor neurones, Mean ± s.e.m (%)” value in assay [7] (3 nM for 48 h after glutamate 4 microM 10 min) turned out to be 148 ± 8%.

The record behind these values is US20110190249A1, “THERAPEUTIC METHODS AND USES OF SAPOGENINS AND THEIR DERIVATIVES” (PHYTOPHARM PLC, priority 2002, published 2011).
